From patent publication US10176292B2, “STING crystals and modulators” (MEMORIAL SLOAN-KETTERING CANCER CENTER, priority 2013, dated 2019) come the findings set out here.

One assay deals with murine BMDMs. In words: IFN-α ELISA, BMDM stimulation with cGAMP isomers. Format: cell-based. The note with it: Mus musculus, BMDM - Ifna. The method, then: (§1) Bone marrow derived murine macrophages and THP-1 cells were stimulated by incubation with cGAMP isomers at indicated concentrations for 18 hrs, or by Digitonin permeabilization (30 minutes) at indicated concentrations as described (Woodward et al., 2010). Cytokines in supernatants were determined after 18 hrs by ELISA. THP1 cells were plated at 8×10^4 cells per 96-well and treated as described above.
(§2) CXCL10 was measured using the BD Opteia human IP-10 ELISA Set according to manufacturer's recommendations. Murine IFN-α was determined by ELISA using antibody RMMA-1 for capture and rabbit-anti-murine IFN-α polyclonal antibody for detection (PBL Interferon Source, Piscataway, N.J.). Dose-response curves were fitted and EC50 values were determined with Graphpad Prism (Graph Pad Software Inc., San Diego, Calif.).

The subject of a further assay is THP1 cells. In words: CXCL10 ELISA, THP1 stimulation with cGAMP isomers. It is filed as cell-based. The conditions noted are these: Homo sapiens. The procedure: Human THP1 cells were cultured in RPMI1640 (Life Technologies) containing 10% FBS, 2 mM glutamine (Life Technologies), 1 mM sodium pyruvate (Life Technologies), and 100 U/ml penicillin/streptomycin (Life Technologies).
as §1, §2
On the technique in general: An ELISA detects its analyte on a solid surface through an enzyme-linked reagent.

In another assay the test system is BMDMs. In words: Western blot of Tbk1 and Irf3 phosphorylation in BMDMs. Format: cell-based, mouse. The note with it: 15 μM, 2 and 4 h post-treatment. The procedure:
BMDMs (1×10^6) were treated with cGAMP linkage isomers. At various times post-stimulation, the medium was removed and cells were collected. Whole-cell lysates were prepared at 2, 4, and 8 h post-treatment. Equal amounts of proteins were subjected to SDS-PAGE and transferred to a nitrocellulose membrane. Phosphorylation of IRF3 was determined using a rabbit polyclonal antibody specific for phosphoserine-396 of IRF3 (Cell signaling). The level of IRF3 was determined by using a rabbit polyclonal antibody against IRF3. Phosphorylation of TBK1 was determined using a rabbit monoclonal antibody specific for phosphoserine-172 of TBK1 (Cell Signaling). The level of TBK1 was determined by using a rabbit monoclonal antibody against TBK1 (Cell Signaling). Anti-glyceraldehyde-3-phosphate dehydrogenase (GADPH) was used as loading controls.
(A western blot detects proteins with antibodies after separation by electrophoresis.)

Another assay concerns the target T1, mSting^A231 (aa 139-378) (Mus musculus, UniProt Q3TBT3, R231A).
T1 sequence (Q3TBT3 139-378 R231A): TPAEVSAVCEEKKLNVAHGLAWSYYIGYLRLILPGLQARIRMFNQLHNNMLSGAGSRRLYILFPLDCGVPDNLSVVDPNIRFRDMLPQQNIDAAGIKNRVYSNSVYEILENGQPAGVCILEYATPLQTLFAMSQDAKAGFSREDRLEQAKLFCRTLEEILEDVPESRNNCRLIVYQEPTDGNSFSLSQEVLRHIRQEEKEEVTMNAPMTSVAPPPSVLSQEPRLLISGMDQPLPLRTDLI
The conditions noted are these: Protein: 0.2 mM; Ligands: 1.0 mM; pH 7.5; 25° C.

For another assay, the target named is T2, mSting^R231 (aa 139-378) (Mus musculus, UniProt Q3TBT3).
T2 sequence (Q3TBT3 139-378): T1 sequence (Q3TBT3 139-378 R231A) with A93R
In words: ITC binding, mSting^R231.

Assay [1] has as its system bone-marrow-derived macrophages (BMDMs). In words: qPCR of Ifnb1, I16, Cc15 mRNAs in BMDMs. The conditions noted are these: differences to the other two isomers did not exceed three-fold. For orientation: In qPCR the cycle at which signal appears reflects the starting amount.
For a further assay, the target named is T3, hSTING^H232 (aa 140-379) (Homo sapiens, UniProt Q86WV6).
T3 construct: His6-SUMO (N, cleaved yes); made in house; host or cells: E. coli BL21 (DE3) RIL
In words: ITC binding, hSTING^H232. The note with it: Protein: 0.2 mM; Ligands: 1 mM; 30 mM HEPES, 100 mM NaCl, pH 7.5; 25° C.

A further assay addresses T4, hSTING^H232 (Homo sapiens, UniProt Q86WV6).
T4 construct: Full-length hSTING (wt and substitutions) and mSTING (wt) constructs were used for this cellular assay; expressed in transfected cells; host or cells: HEK293T
In words: IFN-β luciferase reporter, HEK293T cells with hSTING^H232. The conditions noted are these: digitonin permeabilization (30 min), 12 h. It is filed as cell-based.

The next assay concerns the target hSTING^R232 (aa 140-379) (Homo sapiens, UniProt Q86WV6, H232R). In words: ITC binding, hSTING^R232 (wt hSTING).
The target of the next assay is T5, mSTING (mSting^R231) (Mus musculus, UniProt Q3TBT3).
T5 construct: Full-length hSTING (wt and substitutions) and mSTING (wt) constructs were used for this cellular assay; expressed in transfected cells; host or cells: HEK293T
In words: IFN-β luciferase reporter, HEK293T cells with mSTING. Format: cell-based. The note with it: 5 and 10 μM, digitonin permeabilization, 12 h.

The target in another assay is T6, hSTING^R232 (Homo sapiens, UniProt Q86WV6, H232R).
T6 construct: Full-length hSTING (wt and substitutions) and mSTING (wt) constructs were used for this cellular assay; expressed in transfected cells; host or cells: HEK293T
In words: IFN-β luciferase reporter, HEK293T cells with hSTING (hSTING^R232). It is filed as cell-based. The note with it: high concentrations, digitonin permeabilization. The procedure:
(§3) Luciferase expression was determined after 12 h. […] Cells were lysed in Passive Lysis Buffer.
Luciferase assays for DMXAA experiments were performed as described above. Briefly, 3×10^4 293T cells were reverse-transfected with STING constructs (5 ng per 96-well) and reporter constructs (50 ng pIFNβ-Gluc, 10 ng pLenti-EF1-Fluc for normalization, 35 ng pMAX-empty as stuffer, delivered with TransIT-LT1, MirusBio, Madison Wis.). […] 12 hours after stimulation with STING-ligands, cells were resuspended in passive lysis buffer and luciferase activity was determined using the respective substrates Coelenterazine and D-Luciferin (PJK, Kleinblittersdorf, Germany). Gaussia Luciferase values were then normalized to constitutive Firefly Luciferase values (resulting in Relative Light Units, RLU).

A further assay has as its target T7, hSTING^THP1 (Homo sapiens, UniProt Q86WV6, G230A/H232R/R293Q/R71H).
T7 construct: Full-length hSTING (wt and substitutions) and mSTING (wt) constructs were used for this cellular assay; expressed in transfected cells; host or cells: HEK293T
In words: IFN-β luciferase reporter, HEK293T cells with hSTING^THP1. The conditions noted are these: high concentrations, digitonin permeabilization. It is filed as cell-based. The procedure: as §3

The target of assay [2] is T8, hSTING S162A (hSTING^H232 and hSTING^R232 background) (Homo sapiens, UniProt Q86WV6, S162A).
T8 construct: Full-length hSTING (wt and substitutions) and mSTING (wt) constructs were used for this cellular assay; expressed in transfected cells; host or cells: HEK293T
Format: cell-based. The note with it: digitonin permeabilization.

Setting [3] is: THP-1, 0.5 h, THP1 - CXCL10, +Digitonin (30 min).
[4] abbreviates: THP-1, THP1 - CXCL10, unpermeabilized, 18 h.
[5] abbreviates: cGAMP isomers, Protein: 0.2 mM, Ligands: 0.9 mM, 100 mM NaCl, pH 7.5, 25° C.
Where [6] appears, read: Protein: 0.2 mM, Ligands: 0.9 mM, pH 7.5, 25° C.

Positions count from the first letter of the chain named.

hSTING^R232 (aa 140-379), sequence (Q86WV6 140-379 H232R): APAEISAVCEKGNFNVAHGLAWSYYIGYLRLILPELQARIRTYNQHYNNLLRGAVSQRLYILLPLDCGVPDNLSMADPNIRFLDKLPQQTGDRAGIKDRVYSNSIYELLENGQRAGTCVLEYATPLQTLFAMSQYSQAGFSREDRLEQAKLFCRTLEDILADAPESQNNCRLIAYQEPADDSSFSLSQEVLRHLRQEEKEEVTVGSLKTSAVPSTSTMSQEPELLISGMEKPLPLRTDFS
T3 sequence (Q86WV6 140-379): as the sequence (Q86WV6 140-379 H232R) above, with R93H counted along it
T4 sequence (Q86WV6 whole entry): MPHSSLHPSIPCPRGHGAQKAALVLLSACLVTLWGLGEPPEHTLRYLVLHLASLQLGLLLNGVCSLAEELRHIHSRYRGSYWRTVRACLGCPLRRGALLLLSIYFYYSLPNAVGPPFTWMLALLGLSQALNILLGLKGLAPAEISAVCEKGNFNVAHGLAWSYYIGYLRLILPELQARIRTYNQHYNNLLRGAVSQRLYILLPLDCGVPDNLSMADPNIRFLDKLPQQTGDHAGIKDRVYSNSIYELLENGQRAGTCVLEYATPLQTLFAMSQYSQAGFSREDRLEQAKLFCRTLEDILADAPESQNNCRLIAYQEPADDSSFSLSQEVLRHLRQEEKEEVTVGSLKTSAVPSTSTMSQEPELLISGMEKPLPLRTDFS
T8 sequence (Q86WV6 whole entry S162A): as the sequence (Q86WV6 whole entry) above, with S162A counted along it
T5 sequence (Q3TBT3 whole entry): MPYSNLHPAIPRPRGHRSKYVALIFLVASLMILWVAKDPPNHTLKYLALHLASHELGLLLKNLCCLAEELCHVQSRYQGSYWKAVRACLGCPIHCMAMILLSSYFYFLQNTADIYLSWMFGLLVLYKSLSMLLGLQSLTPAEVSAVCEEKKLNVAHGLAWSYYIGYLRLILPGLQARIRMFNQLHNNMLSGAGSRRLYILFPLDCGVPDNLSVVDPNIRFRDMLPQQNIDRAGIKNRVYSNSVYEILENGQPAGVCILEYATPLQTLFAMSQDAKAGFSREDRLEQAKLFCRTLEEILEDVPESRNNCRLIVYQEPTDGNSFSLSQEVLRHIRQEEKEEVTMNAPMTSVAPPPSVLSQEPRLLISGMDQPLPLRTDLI
T6 sequence (Q86WV6 whole entry H232R): as the sequence (Q86WV6 whole entry) above, with H232R counted along it
T7 sequence (Q86WV6 whole entry R71H/G230A/H232R/R293Q): as the sequence (Q86WV6 whole entry) above, with R71H, G230A, H232R, R293Q counted along it

`Nc1nc2c(ncn2[C@@H]2O[C@@H]3COP(=O)(O)O[C@H]4[C@@H](O)[C@H](n5cnc6c(N)ncnc65)O[C@@H]4COP(=O)(O)O[C@H]3[C@H]2O)c(=O)[nH]1`: the EC50 in the assay with murine BMDMs (0.5 h, +Digitonin (30 min)) turned out to be 420 nM; in the assay on murine BMDMs (unpermeabilized, 18 h) it was 8400 nM; in the assay with THP1 cells (setting [3]) it was 330 nM; in the assay on THP1 cells (setting [4]), 5700 nM. Moreover, in the assay with BMDMs, the “Tbk1 and Irf3 protein phosphorylation” value is listed as “highest levels”. Moreover, the TΔS result at mSting^A231 (aa 139-378) is reported as “+0.65 Kcal/mol”; at mSting^R231 (aa 139-378) (setting [5]), “+12.94 Kcal/mol”. The same compound registered a ΔG on mSting^A231 (aa 139-378) of -8.01 kcal/mol. The values for the ΔH on mSting^A231 (aa 139-378) and at mSting^R231 (aa 139-378) (setting [5]) were -7.36 kcal/mol and “+3.95 Kcal/mol”, respectively. Also, in [1], the “potency in induction of Ifnb1, I16, Cc15 among the three cGAMP isomers” value was “most potent compound”.
For the compound `Nc1nc2c(ncn2[C@@H]2O[C@@H]3COP(=O)(O)O[C@@H]4[C@H](O)[C@@H](COP(=O)(O)O[C@@H]2[C@@H]3O)O[C@H]4n2cnc3c(N)ncnc32)c(=O)[nH]1`, the Kd at hSTING^H232 (aa 140-379) was 2500 ± 100 nM; at mSting^R231 (aa 139-378) it was 180 ± 20 nM; at hSTING^R232 (aa 140-379) it was 170 ± 20 nM. The TΔS entry on hSTING^H232 (aa 140-379) was “+0.37 Kcal/mol”; on mSting^R231 (aa 139-378) (setting [5]), “+13.12 Kcal/mol”; on hSTING^R232 (aa 140-379) (setting [6]), “+14.88 Kcal/mol”. Moreover, the ΔG on hSTING^H232 (aa 140-379) was -7.52 kcal/mol; on mSting^R231 (aa 139-378) (setting [5]) it was -9.20 kcal/mol; at hSTING^R232 (aa 140-379) (setting [6]) it was -9.25 kcal/mol. Also, the values for the ΔH on hSTING^H232 (aa 140-379), on mSting^R231 (aa 139-378) (setting [5]) and on hSTING^R232 (aa 140-379) (setting [6]) were -7.15 kcal/mol, “+3.92 Kcal/mol” and “+5.63 Kcal/mol”, respectively. The EC50 in the assay with murine BMDMs (0.5 h, +Digitonin (30 min)) is 800 nM; with murine BMDMs (unpermeabilized, 18 h) it was 12500 nM; in the assay on THP1 cells (setting [3]) it was 120 nM; with THP1 cells (setting [4]), 1200 nM. In addition, the “IFN luciferase reporter dose-response to cGAMP isomers” value at hSTING^H232 is recorded as “no significant differences in stimulation”.
Regarding `Nc1nc2c(ncn2[C@@H]2O[C@@H]3COP(=O)(O)O[C@H]4[C@@H](O)[C@H](n5cnc6c(N)ncnc65)O[C@@H]4COP(=O)(O)O[C@@H]2[C@@H]3O)c(=O)[nH]1`, the EC50 came to 290 nM in the assay on murine BMDMs (0.5 h, +Digitonin (30 min)); 12500 nM in the assay with murine BMDMs (unpermeabilized, 18 h); 140 nM with THP1 cells (setting [3]); 3400 nM in the assay on THP1 cells (setting [4]).
Consider `Nc1nc2c(ncn2[C@@H]2O[C@@H]3COP(=O)(O)O[C@H]4[C@@H](O)[C@H](n5cnc6c(=O)[nH]c(N)nc65)O[C@@H]4COP(=O)(O)O[C@H]3[C@H]2O)c(=O)[nH]1` [c[di-GMP], cyclic di-GMP], for which the “IFN luciferase reporter response to c[di-GMP]” value at mSTING (mSting^R231) was “stimulated mSting”; on hSTING^R232 it was “residual response”; at hSTING^THP1, “residual response”; in [2] it was “not restoring c[di-GMP] responsiveness”.

As usually defined, the EC50 is the concentration at which the effect is half-maximal. As a reminder, the Kd is a measure of binding affinity in units of concentration. Higher therefore signals weaker binding.
